The target of one assay is T1, recombinant human Meningioma Expressed Antigen 5 (MGEA5), also referred to as O-GlcNAcase (OGA) (Homo sapiens, UniProt O60502).
T1 construct: Full length OGA enzyme was purchased at OnGene (cat #TP322411); purchased OnGene (so in the source)
T1 sequence (O60502 1-916): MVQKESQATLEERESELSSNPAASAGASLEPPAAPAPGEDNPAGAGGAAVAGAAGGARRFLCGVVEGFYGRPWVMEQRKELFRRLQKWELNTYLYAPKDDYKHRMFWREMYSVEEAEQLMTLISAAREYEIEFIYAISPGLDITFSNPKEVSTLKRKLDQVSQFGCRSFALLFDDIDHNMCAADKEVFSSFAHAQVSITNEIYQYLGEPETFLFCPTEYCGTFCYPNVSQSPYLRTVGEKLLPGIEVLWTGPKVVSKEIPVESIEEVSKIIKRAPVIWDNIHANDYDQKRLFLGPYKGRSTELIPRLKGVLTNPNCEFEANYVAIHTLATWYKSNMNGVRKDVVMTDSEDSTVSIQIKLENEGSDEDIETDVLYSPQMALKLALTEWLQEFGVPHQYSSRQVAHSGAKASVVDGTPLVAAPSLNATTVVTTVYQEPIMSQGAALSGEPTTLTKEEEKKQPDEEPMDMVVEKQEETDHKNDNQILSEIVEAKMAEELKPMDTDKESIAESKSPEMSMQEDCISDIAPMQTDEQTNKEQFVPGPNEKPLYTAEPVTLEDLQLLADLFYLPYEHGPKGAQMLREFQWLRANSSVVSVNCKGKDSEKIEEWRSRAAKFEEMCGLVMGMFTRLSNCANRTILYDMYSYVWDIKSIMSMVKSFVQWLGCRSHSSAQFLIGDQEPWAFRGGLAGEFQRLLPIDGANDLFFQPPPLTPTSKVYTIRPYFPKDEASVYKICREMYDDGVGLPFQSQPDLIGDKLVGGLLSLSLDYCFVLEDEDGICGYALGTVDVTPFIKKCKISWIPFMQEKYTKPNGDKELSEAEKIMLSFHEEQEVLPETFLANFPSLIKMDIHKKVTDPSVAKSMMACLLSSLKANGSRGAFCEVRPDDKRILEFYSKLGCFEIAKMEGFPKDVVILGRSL
As to the kind of experiment: OGA biochemical assay (inhibition of FM-GlcNAc hydrolysis, fluorescence). Particulars: maximal effect, read-out: Enzymatic Emax (%). The text has this:
The assay is based on the inhibition of the hydrolysis of fluorescein mono-β-D-N-Acetyl-Glucosamine (FM-GlcNAc) (Mariappa et al. 2015, Biochem J 470:255) by the recombinant human Meningioma Expressed Antigen 5 (MGEA5), also referred to as O-GlcNAcase (OGA). The hydrolysis FM-GlcNAc (Marker Gene technologies, cat #M1485) results in the formation of β-D-N-glucosamineacetate and fluorescein. The fluorescence of the latter can be measured at excitation wavelength 485 nm and emission wavelength 538 nm. An increase in enzyme activity results in an increase in fluorescence signal. Full length OGA enzyme was purchased at OnGene (cat #TP322411). The enzyme was stored in 25 mM Tris.HCl, pH 7.3, 100 mM glycine, 10% glycerol at −20° C. Thiamet G and GlcNAcStatin were tested as reference compounds (Yuzwa et al. 2008 Nature Chemical Biology 4:483; Yuzwa et al. 2012 Nature Chemical Biology 8:393). The assay was performed in 200 mM Citrate/phosphate buffer supplemented with 0.005% Tween-20. 35.6 g Na2HPO42H2O (Sigma, #C0759) were dissolved in 1 L water to obtain a 200 mM solution. 19.2 g citric acid (Merck, #1.06580) was dissolved in 1 L water to obtain a 100 mM solution. pH of the sodiumphosphate solution was adjusted with the citric acid solution to 7.2. The buffer to stop the reaction consists of a 500 mM Carbonate buffer, pH 11.0. 734 mg FM-GlcNAc were dissolved in 5.48 mL DMSO to obtain a 250 mM solution and was stored at −20° C. OGA was used at a 2 nM concentration and FM-GlcNAc at a 100 uM final concentration. Dilutions were prepared in assay buffer.
50 nl of a compound dissolved in DMSO was dispensed on Black Proxiplate TM 384 Plus Assay plates (Perkin Elmer, #6008269) and 3 μl fl-OGA enzyme mix added subsequently. Plates were pre-incubated for 60 min at room temperature and then 2 μl FM-GlcNAc substrate mix added. […] Plates were briefly centrifuged for 1 min at 1000 rpm and incubate at room temperature for 6 h. To stop the reaction 5 μl STOP buffer were added and plates centrifuge again 1 min at 1000 rpm. Fluorescence was quantified in the Thermo Scientific Fluoroskan Ascent or the PerkinElmer EnVision with excitation wavelength 485 nm and emission wavelength 538 nm.
For analysis a best-fit curve is fitted by a minimum sum of squares method. From this an IC50 value and Hill coefficient was obtained. High control (no inhibitor) and low control (saturating concentrations of standard inhibitor) were used to define the minimum and maximum values.
Turning to `Cc1cc(OC[C@H]2CCCN(C(C)c3ccc4c(n3)OCCO4)C2)cc(C)n1` (single isomer, unassigned) [Product 139], the Emax (usually the maximal effect, on the per cent scale that the assay sets) turned out to be 98%.

Take `COc1cc(N[C@H]2CCCN(C(C)c3ccc4c(n3)OCCO4)C2)cc(C)n1` (stereo partly shown) [Product 192]: the Emax turned out to be 99%.

For `Cc1cc(OC[C@H]2CCCN(C(C)c3ccc4c(n3)OCCO4)C2)cc(C)n1` (mixture of isomers) [Product 19], the Emax was 102%.

With `Cc1cc(CC2(F)CCCN([C@@H](C)c3nc4c(cc3F)OCCO4)C2)cc(C)n1` (single isomer, unassigned) [Product 175], the maximal response (Emax) came to 92%.

In the case of `Cc1cc([C@@H]2CCCN([C@H](C)c3ccc4c(n3)OCCO4)C2)cc(C)n1` (single isomer, unassigned) [Product 160], the maximal response (Emax) came out at 89%.

`Cc1cc([C@H]2CCCN(C(C)c3ccc4c(n3)OCCO4)C2)cc(C)n1` (single isomer, unassigned) [Product 149]: the Emax is 100%.

Regarding `CC(c1ccc2c(n1)OCCO2)N1CCC[C@H](NCc2ccc(F)cc2)C1` (stereo partly shown) [Product 197], the Emax is 98%.

The same assay, now with this note: read-out: Enzymatic hOGA, pIC50 (converted).
For the molecule `Cc1cc(OC[C@H]2CCCN(C(C)c3ccc4c(n3)OCCO4)C2)cc(C)n1` (single isomer, unassigned) [Product 139], the IC50 is 7.94 nM.

With `COc1cc(N[C@H]2CCCN(C(C)c3ccc4c(n3)OCCO4)C2)cc(C)n1` (stereo partly shown) [Product 192], the IC50 is 6.31 nM.

Consider `Cc1cc(OC[C@H]2CCCN(C(C)c3ccc4c(n3)OCCO4)C2)cc(C)n1` (mixture of isomers) [Product 19], for which the IC50 was 7.94 nM.

On to `Cc1cc(CC2(F)CCCN([C@@H](C)c3nc4c(cc3F)OCCO4)C2)cc(C)n1` (single isomer, unassigned) [Product 175], for which the IC50 is 1000 nM.

On to `Cc1cc([C@@H]2CCCN([C@H](C)c3ccc4c(n3)OCCO4)C2)cc(C)n1` (single isomer, unassigned) [Product 160], for which the IC50 was 2000 nM.

For `Cc1cc([C@H]2CCCN(C(C)c3ccc4c(n3)OCCO4)C2)cc(C)n1` (single isomer, unassigned) [Product 149], the IC50 was 10 nM.

Consider `CC(c1ccc2c(n1)OCCO2)N1CCC[C@H](NCc2ccc(F)cc2)C1` (stereo partly shown) [Product 197], for which the IC50 was 398 nM.

For the next assay, the target named is T2, OGA (Homo sapiens, UniProt O60502).
T2 construct: endogenous in cells; host or cells: HEK293 cells inducible for P301L mutant human Tau (2N4R)
T2 sequence (O60502 1-916): T1 sequence (O60502 1-916)
As to the kind of experiment: OGA cellular assay (ICC detection of O-GlcNAcylated proteins in HEK293 cells inducible for P301L mutant human Tau). As to conditions: HEK293, HEK293 cells inducible for P301L mutant human Tau, maximal effect; Thiamet G 200 uM as maximum. Format: cell-based. As for the experimental part:
HEK293 cells inducible for P301L mutant human Tau (isoform 2N4R) were established at Janssen. Thiamet-G was used for both plate validation (high control) and as reference compound (reference EC50 assay validation). OGA inhibition is evaluated through the immunocytochemical (ICC) detection of O-GlcNAcylated proteins by the use of a monoclonal antibody (CTD110.6; Cell Signaling, #9875) detecting 0-GlcNAcylated residues as previously described (Dorfmueller et al. 2010 Chemistry & biology, 17:1250). Inhibition of OGA will result in an increase of O-GlcNAcylated protein levels resulting in an increased signal in the experiment. Cell nuclei are stained with Hoechst to give a cell culture quality control and a rough estimate of immediate compounds toxicity, if any. ICC pictures are imaged with a Perkin Elmer Opera Phenix plate microscope and quantified with the provided software Perkin Elmer Harmony 4.1.
Cells were propagated in DMEM high Glucose (Sigma, #D5796) following standard procedures. 2 days before the cell assay cells are split, counted and seeded in Poly-D-Lysine (PDL) coated 96-wells (Greiner, #655946) plate at a cell density of 12,000 cells per cm^2 (4,000 cells per well) in 100 μl of Assay Medium (Low Glucose medium is used to reduce basal levels of GlcNAcylation) (Park et al. 2014 The Journal of biological chemistry 289:13519). At the day of compound test medium from assay plates was removed and replenished with 90 μl of fresh Assay Medium. 10 μl of compounds at a 10 fold final concentration were added to the wells. Plates were centrifuged shortly before incubation in the cell incubator for 6 hours. DMSO concentration was set to 0.2%. Medium is discarded by applying vacuum. For staining of cells medium was removed and cells washed once with 100 μl D-PBS (Sigma, #D8537). From next step onwards unless other stated assay volume was always 50 μl and incubation was performed without agitation and at room temperature. Cells were fixed in 50 μl of a 4% paraformaldehyde (PFA, Alpha aesar, #043368) PBS solution for 15 minutes at room temperature. […] Before analysis samples were washed 2 times manually for 5 minutes in ICC base buffer.
Imaging is performed using Perkin Elmer Phenix Opera using a water 20× objective and recording 9 fields per well. Intensity readout at 488 nm is used as a measure of O-GlcNAcylation level of total proteins in wells. To assess potential toxicity of compounds nuclei were counted using the Hoechst staining. IC50-values are calculated using parametric non-linear regression model fitting. As a maximum inhibition Thiamet G at a 200 uM concentration is present on each plate. In addition, a concentration response of Thiamet G is calculated on each plate.
For `Cc1cc(OC[C@H]2CCCN(C(C)c3ccc4c(n3)OCCO4)C2)cc(C)n1` (single isomer, unassigned) [Product 139], the Emax worked out at 88%.

With `COc1cc(N[C@H]2CCCN(C(C)c3ccc4c(n3)OCCO4)C2)cc(C)n1` (stereo partly shown) [Product 192], the Emax was found to be 91%.

With `Cc1cc(OC[C@H]2CCCN(C(C)c3ccc4c(n3)OCCO4)C2)cc(C)n1` (mixture of isomers) [Product 19], the Emax amounted to 86%.

In the case of `Cc1cc(CC2(F)CCCN([C@@H](C)c3nc4c(cc3F)OCCO4)C2)cc(C)n1` (single isomer, unassigned) [Product 175], the maximal response (Emax) stood at 1%.

`Cc1cc([C@@H]2CCCN([C@H](C)c3ccc4c(n3)OCCO4)C2)cc(C)n1` (single isomer, unassigned) [Product 160] had an Emax of 5%.

`Cc1cc([C@H]2CCCN(C(C)c3ccc4c(n3)OCCO4)C2)cc(C)n1` (single isomer, unassigned) [Product 149]: the maximum response (Emax) was determined as 93%.

Consider `CC(c1ccc2c(n1)OCCO2)N1CCC[C@H](NCc2ccc(F)cc2)C1` (stereo partly shown) [Product 197], for which the maximal response (Emax) was 66%.

Still in this assay, the particulars now being: HEK293 cells inducible for P301L mutant human Tau, 6 hours incubation; read-out: Cellular hOGA; pEC50 (converted).
In the case of `Cc1cc(OC[C@H]2CCCN(C(C)c3ccc4c(n3)OCCO4)C2)cc(C)n1` (single isomer, unassigned) [Product 139], the EC50 is 20 nM.

With `COc1cc(N[C@H]2CCCN(C(C)c3ccc4c(n3)OCCO4)C2)cc(C)n1` (stereo partly shown) [Product 192], the EC50 was 20 nM.

As for `Cc1cc(OC[C@H]2CCCN(C(C)c3ccc4c(n3)OCCO4)C2)cc(C)n1` (mixture of isomers) [Product 19], the EC50 is 31.6 nM.

Take `Cc1cc(CC2(F)CCCN([C@@H](C)c3nc4c(cc3F)OCCO4)C2)cc(C)n1` (single isomer, unassigned) [Product 175]: the EC50 is more than 1000 nM.

Consider `Cc1cc([C@@H]2CCCN([C@H](C)c3ccc4c(n3)OCCO4)C2)cc(C)n1` (single isomer, unassigned) [Product 160], for which the EC50 was more than 1000 nM.

Consider `Cc1cc([C@H]2CCCN(C(C)c3ccc4c(n3)OCCO4)C2)cc(C)n1` (single isomer, unassigned) [Product 149], for which the EC50 was 31.6 nM.

For `CC(c1ccc2c(n1)OCCO2)N1CCC[C@H](NCc2ccc(F)cc2)C1` (stereo partly shown) [Product 197], the EC50 was 631 nM.

These data come from US20210300943A1, “OGA INHIBITOR COMPOUNDS” (Janssen Pharmaceutica NV, priority 2018, published 2021).
